Columns and labels:
[1] = MTS viability assay; assay type: cell-based, human; settings: human, vehicle = 100%
Description: (§1) The potential cytotoxicity of 7-alkylated chenodeoxycholic acid derivatives were assessed in different human (HepG2, HepaRG and Huh7) and murine (AML12) hepatocyte-derived cell lines. For this purpose, hepatic cells were treated at increasing concentration for 24h and analyzed by MTS viability assay.
(§2) Table S2. Cell viability was determined using the Cell Titer 96 Aqueous One Solution Cell Proliferation Assay (MTS assay) after treatment with test compounds for 24 h in four different hepatic cell lines. Vehicle (0.1% DMSO) and background (10% SDS; v/v, toxic control) controls of cell viability were set to be 100% and 0%, respectively.

[2] = test system: HepaRG; test: MTS viability assay; assay type: cell-based, human; settings: Homo sapiens, 24 h, MTS, read-out: IC50 (µM), cell viability
Description: as §1, §2

[3] = test system: Huh7; test: MTS viability assay; assay type: cell-based, human; settings: Homo sapiens, Huh-7; Huh7, 24 h, MTS; read-out: IC50 (µM), cell viability
Description: as §1, §2

[4] = test system: HepG2; test: MTS viability assay; assay type: cell-based, human; settings: Homo sapiens; HepG2, 24 h, MTS; read-out: IC50 (µM), cell viability
Description: as §1, §2

[5] = test system: SHP protein, HepaRG cells; test: Western blot of SHP protein in HepaRG cells; assay type: cell-based, human; settings: with OCA 1 µM, 48 h
Description: Protein determination was performed from whole-cell lysates of terminally differentiated HepaRG cells treated for 48 h. Protein levels were quantified using a PierceTM BCA Protein Assay Kit (ThermoFisher Scientific, Waltham, United States) according to the manufacturer's protocol. The western blotting analysis was performed as described in our previous paper ([Stefela et al., 2020]) with mouse monoclonal anti-SHP antibody (clone OTI5F10, Cat. No. TA806319, Origene, Rockville, MD, United States) and antibody against GAPDH (Cell Signaling Technology, Leiden, the Netherlands) as a loading control. Protein concentration was measured using the BCA protein assay (Sigma-Aldrich/Merck, Prague, Czech Republic). Protein expression quantification was done using densitometric software (LabImage, Kapelan Bio-Imaging, Germany).
FIGURE 6 Regulation of FXR downstream genes by 7-ELCA and 7β-propyl-CDCA in the presence or absence of 1 µM OCA as the potent FXR agonist. Real-time qPCR analysis of mRNA expression of (A,C) BSEP and (B,D) SHP genes was performed in terminally differentiated HepaRG hepatic cells (A,B), and in primary human hepatocytes (PHH) from one donor treated for 24 h (C,D). (E) SHP protein expression in HepaRG cells after 48 h treatment with OCA alone or in combination with 7-ELCA and 7β-propyl-CDCA. […]

[6] = test system: BSEP and SHP mRNA (FXR target genes), HepaRG cells; test: RT-qPCR of FXR target genes in differentiated HepaRG cells; assay type: cell-based, human; settings: for BSEP mRNA level upregulated by OCA / SHP mRNA level upregulated by OCA: 40 µM with OCA 1 µM, 24 h; for BSEP and SHP mRNA expression, compound per se: without OCA
Description: (§3) Total RNA from HepaRG cells or primary human hepatocyte samples was isolated by the phenol/chloroform method with TRI-reagent (Merck) according to the manufacturer's protocol. The cDNA was synthesized using a Tetro cDNA Synthesis Kit (Bioline, now Meridian Bioscience, Memphis, United States), and RT-qPCR was run in the Quant Studio 6 instrument using the Fast Advanced Master Mix (ThermoFisher Scientific, Waltham, United States) according to the MIQE protocols. All the probes were obtained from ThermoFisher Scientific: ABCB11 (BSEP, Hs00184824_m1), NR0B2 (SHP, Hs00222677_m1).
(§4) FIGURE 6 Regulation of FXR downstream genes by 7-ELCA and 7β-propyl-CDCA in the presence or absence of 1 µM OCA as the potent FXR agonist. Real-time qPCR analysis of mRNA expression of (A,C) BSEP and (B,D) SHP genes was performed in terminally differentiated HepaRG hepatic cells (A,B), and in primary human hepatocytes (PHH) from one donor treated for 24 h (C,D). (E) SHP protein expression in HepaRG cells after 48 h treatment with OCA alone or in combination with 7-ELCA and 7β-propyl-CDCA. Data were normalized to B2M mRNA or GAPDH protein and are expressed relative to those of control (vehicle-treated) cells.

[7] = test system: BSEP and SHP mRNA (FXR target genes), primary human hepatocytes; test: RT-qPCR of FXR target genes in primary human hepatocytes; assay type: cell-based; settings: for BSEP mRNA level upregulated by OCA / SHP mRNA level upregulated by OCA: 40 µM with OCA 1 µM, 24 h; for BSEP and SHP mRNA expression, compound per se: without OCA
Description: as §3, §4

[8] = MTS viability assay; assay type: cell-based, murine; settings: mouse, AML12 cells; AML12, 24 h, vehicle = 100%
Description: as §1, §2

[9] = test system: AML12; test: MTS viability assay; assay type: cell-based, murine; settings: Mus musculus; AML12, 24 h, MTS; read-out: IC50 (µM), cell viability
Description: as §1, §2

[10] = biological target: T1, GPBAR1 (Homo sapiens, UniProt Q8TDU6); test: GPBAR1 CRE-luc luciferase reporter assay in HepG2 cells; assay type: cell-based; settings: for CRE-luc activation compared to LCA (in words): 10 µM, 5 h, LCA 10 µM set as 100%
T1 construct: host or cells: HepG2
T1 sequence (Q8TDU6 1-330): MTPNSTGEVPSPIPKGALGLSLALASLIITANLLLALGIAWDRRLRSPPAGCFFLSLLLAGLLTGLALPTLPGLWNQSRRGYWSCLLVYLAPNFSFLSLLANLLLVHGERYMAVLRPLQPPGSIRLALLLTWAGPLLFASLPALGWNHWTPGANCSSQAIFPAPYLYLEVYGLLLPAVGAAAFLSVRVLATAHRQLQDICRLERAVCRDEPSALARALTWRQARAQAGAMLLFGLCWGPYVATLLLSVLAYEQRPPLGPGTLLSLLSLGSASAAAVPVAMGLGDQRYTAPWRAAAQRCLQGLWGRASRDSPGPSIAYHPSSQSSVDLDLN
Description: (C) Effects of LCA and 7-ELCA (both at 10 µM) on intracellular generation of cAMP in differentiated NCI-H716 cells after 30 min treatment. The increase in cAMP level (ΔcAMP) is presented as the difference between cAMP concertation in the treated sample after subtraction of the cAMP in the nontreated control sample. (D) Concentration-response curves for activation of GPBAR1 by LCA and 7-ELCA. EC50 values were calculated using nonlinear fitting of concentration-response curves. […] GLP-1 was normalized to protein concentration and GPBAR1 mRNA expression to GAPDH mRNA. Data are presented as a fold to control nontreated (NT) samples. Forskolin (FSK, 10 µM) was used as a GPBAR1-independent activator of cAMP production.

SMILES	viability at 24 h, 10 µM ([1]; HepG2 cells, HepG2, 24 h) [%]	viability at 24 h, 10 µM ([1]; HepaRG cells) [%]	viability at 24 h, 10 µM ([1]; Huh7 cells, Huh7, 24 h) [%]	IC50 [2] [µM]	IC50 [3] [µM]	IC50 [4] [µM]	SHP protein expression in cells treated with OCA [5]	BSEP mRNA level upregulated by OCA [6]	SHP mRNA level upregulated by OCA [6]	BSEP and SHP mRNA expression, compound per se [6]	BSEP mRNA level upregulated by OCA [7]	SHP mRNA level upregulated by OCA [7]	BSEP and SHP mRNA expression, compound per se [7]	viability at 24 h, 10 µM [8] [%]	IC50 [9] [µM]	CRE-luc activation compared to LCA (in words) [10]	EC50 ([10]; abstract, read-out: EC50, GPBAR1 agonist) [nM]
CCC[C@@]1(O)C[C@@H]2C[C@H](O)CC[C@]2(C)C2CC[C@@]3(C)C(CC[C@@H]3[C@H](C)CCC(=O)O)C21 (stereo partly drawn) [2f, 3α,7α-Dihydroxy-7β-propyl-5β-cholan-24-oic acid]	94.9 ± 11.7	89.4 ± 2.5	117 ± 2.3	97.3	> 100	107 ± 1.1	FXR antagonistic effect	reduced	reduced	did not have an impact	reduced	reduced	did not have an impact	81.2 ± 1	90.8	comparable activities to LCA	
C/C=C1\C[C@@H]2C[C@H](O)CC[C@]2(C)[C@H]2CC[C@]3(C)[C@@H]([C@H](C)CCC(=O)O)CC[C@H]3[C@H]12 [2a, (E)-3α-Hydroxy-7-ethylidene-5β-cholan-24-oic acid]	99.7 ± 1.2	119 ± 6	111 ± 9.5	> 200	> 200	> 200	FXR antagonistic effect	reduced	reduced	did not have an impact	reduced	reduced	did not have an impact	108 ± 4.8	> 200	significantly increase CRE-luc activation more than LCA	26

Source: article PMC8414367, “(E)-7-Ethylidene-lithocholic Acid (7-ELCA) Is a Potent Dual Farnesoid X Receptor (FXR) Antagonist and GPBAR1 Agonist Inhibiting FXR-Induced Gene Expression in Hepatocytes and Stimulating Glucagon-like Peptide-1 Secretion From Enteroendocrine Cells” (Frontiers in Pharmacology, 2021)
